Numbers after ± are expanded uncertainties.
Key:
[1] = xn = mol fraction of the nth substance listed; conditions: 100 kPa, Liquid, x1 = 0.5; for viscosity: Concentric cylinders viscometry; for mass density: Vibrating tube method
[2] = molar heat capacity at constant pressure; xn = mol fraction of the nth substance listed; conditions: 74.66 kPa, Liquid, DSC, x1 = 0.5
[3] = Liquid, Closed cell (Static) method

CCCCOC(=O)CC(O)(CC(=O)O)C(=O)OCCCC (configuration not stated) [2-hydroxy-1,2,3-propanetricarboxylic acid 1,2-dibutyl ester] + CCCCOC(=O)CC(O)(CC(=O)OCCCC)C(=O)O
Conditions | mass density [kg/m3] | molar heat capacity at constant pressure [J/K/mol] | viscosity [mPa·s]
[1], 298.15 K | 1129.7 ± 57 | – | 3220 ± 200
[1], 303.15 K | 1124.2 ± 57 | – | 2120 ± 140
[1], 313.15 K | 1113.4 ± 56 | – | 1130 ± 110
[2], 321.5 K | – | 712.66 ± 76 | –
[2], 324.8 K | – | 718.9 ± 76 | –
[2], 328.2 K | – | 724.78 ± 77 | –
[2], 331.5 K | – | 730.1 ± 77 | –
[2], 334.8 K | – | 734.82 ± 78 | –
[2], 338.2 K | – | 739.17 ± 78 | –
[2], 341.5 K | – | 743.58 ± 79 | –
[2], 344.8 K | – | 747.72 ± 79 | –

CCCCO [butan-1-ol]
[3]
Conditions | vapor or sublimation pressure [kPa]
293.15 K | 0.56 ± 0.06
298.15 K | 0.84 ± 0.08
303.15 K | 1.23 ± 0.12
308.15 K | 1.76 ± 0.18
313.15 K | 2.44 ± 0.24
318.15 K | 3.33 ± 0.33
323.15 K | 4.35 ± 0.44
328.15 K | 5.33 ± 0.53

Reference: the NIST ThermoML archive (doi:10.1021/acs.jced.7b01064)
